Molecules are shown by their SMILES.

Drawing on patent US11613531B2, “Inhibitors of RHO associated coiled-coil containing protein kinase” (Kadmon Corporation, LLC, priority 2017, dated 2023), this text covers inhibition and IC50 for 34 compounds.

For the experiment, the system named is ppMlc (T18/S19) levels in A7R5 cells. In words: A7R5 in-cell ELISA (pMLC). It counts as cell-based, Rat. The conditions noted are these: Rattus norvegicus, A7R5, A7R5 cells; for inhibition at 1 µM: 1 μM compound; for inhibition at 1 µM / inhibition at 10 µM: read-out: pMLC % inh A7R5 @ [conc]; for inhibition at 10 µM: 10 μM compound; for IC50: ppMlc (T18/S19). As for the experimental part:
Determination of Compounds ROCK Inhibitory Activity in A7R5Cells.
Rat aortic smooth muscle cell line, A7R5, cells were seeded with density of 5,000 cells/well in a 96-well plates for 24 hours and subsequently treated for 90 min with testing compounds. Cells were then fixed and processed according to the In-Cell ELISA Colorimetric Detection Kit manual (Thermo Scientific).
An A7R5 in-cell Elisa assay was performed. A7R5 cells were treated with 9 points 2 fold serial dilution of compounds and ppMlc (T18/S19) levels were determined to calculate cellular IC50 values of the compounds. Compounds of the invention gave in cell IC50s under 100 nM.
In vitro activities for the compounds were measured with Z′-lyte kinase kit (ThermoFisher Scientific). The percent inhibition rate was calculated by normalizing the kinase activity value obtained with 1 μM compound treatment against DMSO control value and then applied to the formula, [1-(compound/DMSO)]×100%. IC50s were calculated using the nonlinear regression curve fit function of the GraphPad Prism software with kinase activities data measured with 9 points 2-fold serial dilution of compounds treatment. In cell pMLC IC50s were calculated with data obtained from A7R5 cell experiments. A7R5 cells were treated with 9 points 2-fold serial dilution of compounds and ppMlc (T18/S19) levels were determined to calculate cellular IC50 values of the compounds using the nonlinear regression curve fit function of the GraphPad Prism software. NIH3T3 cells stably expressing ACTA2-promoter-driven-luciferase were applied to measure ROCK compounds functional IC50s in cells. Cells were plated in 96 well plates to confluence and treated with 9 points serial dilution of compounds in combination with TGFβ1 for 24 hr. Luciferase activities were measured and compound's IC50s were calculated using the nonlinear regression curve fit function of the GraphPad Prism software.

With `Cc1cc(Nc2ccc3[nH]ncc3c2)nc(N2CCC3(CCCNC3)C2)n1` (centres unmarked) [Example 124, N-(6-methyl-2-(2,7-diazaspiro[4.5]decan-2-yl)pyrimidin-4-yl)-1H-indazol-5-amine], the inhibition at 1 µM was -7.6%.

As for `Cc1cc(Nc2ccc3[nH]ncc3c2)nc(N2CCCC3(CCNC3)C2)n1` (centres unmarked) [Example 125, N-(6-methyl-2-(2,7-diazaspiro[4.5]decan-7-yl)pyrimidin-4-yl)-1H-indazol-5-amine], the inhibition at 1 µM was 0.7%.

As to `Cc1cc(Nc2ccc3[nH]ncc3c2)nc(N2CC3(CCNC3)C2)n1` [Example 126, N-(6-methyl-2-(2,6-diazaspiro[3.4]octan-2-yl)pyrimidin-4-yl)-1H-indazol-5-amine], the inhibition at 1 µM was -12.3%.

As for `Cc1cc(Nc2ccc3[nH]ncc3c2)nc(N2CC3(CCNCC3)C2)n1` [Example 127, N-(6-methyl-2-(2,7-diazaspiro[3.5]nonan-2-yl)pyrimidin-4-yl)-1H-indazol-5-amine], the inhibition at 1 µM was -7.2%.

Regarding `Cc1cc(Nc2ccc3[nH]ncc3c2)nc(N2CC3(CNC3)C2)n1` [Example 128, N-(6-methyl-2-(2,6-diazaspiro[3.3]heptan-2-yl)pyrimidin-4-yl)-1H-indazol-5-amine], the inhibition at 1 µM was -8.3%.

Regarding `Cc1cc(Nc2ccc3[nH]ncc3c2)nc(N2CCCC(C3CCCNC3)C2)n1` (centres unmarked) [Example 136, N-(2-([3,3′-bipiperidin]-1-yl)-6-methylpyrimidin-4-yl)-1H-indazol-5-amine], the inhibition at 1 µM is 1.1%.

On to `Cc1cc(Nc2ccc3[nH]ncc3c2)nc(N2CC(C3CCCNC3)c3ccccc32)n1` (centres unmarked) [Example 139, N-(6-methyl-2-(3-(piperidin-3-yl)indolin-1-yl)pyrimidin-4-yl)-1H-indazol-5-amine], for which the inhibition at 1 µM came out at 2.2%.

Broadly, the IC50 is the concentration that gives 50% inhibition. Consider `Fc1cnc(N2CCCNC(c3ccccc3)C2)nc1Nc1ccc2[nH]ncc2c1` (centres unmarked) [Example 141, N-(5-fluoro-2-(3-phenyl-1,4-diazepan-1-yl)pyrimidin-4-yl)-1H-indazol-5-amine], for which the inhibition at 10 µM came to 54.9% and the IC50 was 2890 nM.

Take `Fc1cnc(N2CCNC(c3ccccc3)CC2)nc1Nc1ccc2[nH]ncc2c1` (centres unmarked) [Example 142, N-(5-fluoro-2-(5-phenyl-1,4-diazepan-1-yl)pyrimidin-4-yl)-1H-indazol-5-amine]: the inhibition at 10 µM came out at 37.5%.

For the compound `CC(C)C1CN(c2ncc(F)c(Nc3ccc4[nH]ncc4c3)n2)CCCN1` (centres unmarked) [Example 144, N-(5-fluoro-2-(3-isopropyl-1,4-diazepan-1-yl)pyrimidin-4-yl)-1H-indazol-5-amine], the inhibition at 10 µM turned out to be 45.6%.

`CC(C)C1CCN(c2ncc(F)c(Nc3ccc4[nH]ncc4c3)n2)CCN1` (centres unmarked) [Example 145, N-(5-fluoro-2-(5-isopropyl-1,4-diazepan-1-yl)pyrimidin-4-yl)-1H-indazol-5-amine]: the inhibition at 10 µM stood at 42.4%.

`OCC1CNCCN1c1ncc(F)c(Nc2ccc3[nH]ncc3c2)n1` (centres unmarked) [Example 156, (1-(4-((1H-indazol-5-yl)amino)-5-fluoropyrimidin-2-yl)piperazin-2-yl)methanol]: the inhibition at 1 µM was 7.1%.

`Fc1cnc(N2CCC3(CC2)CNC3)nc1Nc1ccc2[nH]ncc2c1` [Example 158, N-(5-fluoro-2-(2,7-diazaspiro[3.5]nonan-7-yl)pyrimidin-4-yl)-1H-indazol-5-amine]: the inhibition at 1 µM was -1.1%.

On to `Fc1cnc(N2CCC3(CNC3)C2)nc1Nc1ccc2[nH]ncc2c1` [Example 159, N-(5-fluoro-2-(2,6-diazaspiro[3.4]octan-6-yl)pyrimidin-4-yl)-1H-indazol-5-amine], for which the inhibition at 1 µM was -12.2%.

For the compound `Fc1cnc(N2CCC3(CC2)CNCCO3)nc1Nc1ccc2[nH]ncc2c1` [Example 160, N-(5-fluoro-2-(1-oxa-4,9-diazaspiro[5.5]undecan-9-yl)pyrimidin-4-yl)-1H-indazol-5-amine], the inhibition at 1 µM amounted to 5.9%.

For the compound `Fc1cnc(N2CCC3(CCCNC3)C2)nc1Nc1ccc2[nH]ncc2c1` (centres unmarked) [Example 161, N-(5-fluoro-2-(2,7-diazaspiro[4.5]decan-2-yl)pyrimidin-4-yl)-1H-indazol-5-amine], the inhibition at 1 µM came out at 2.6%.

Turning to `Fc1cnc(N2CCCC3(CCNC3)C2)nc1Nc1ccc2[nH]ncc2c1` (centres unmarked) [Example 162, N-(5-fluoro-2-(2,7-diazaspiro[4.5]decan-7-yl)pyrimidin-4-yl)-1H-indazol-5-amine], the inhibition at 1 µM worked out at 16.7%.

Consider `Fc1cnc(N2CC3(CCNC3)C2)nc1Nc1ccc2[nH]ncc2c1` [Example 163, N-(5-fluoro-2-(2,6-diazaspiro[3.4]octan-2-yl)pyrimidin-4-yl)-1H-indazol-5-amine], for which the inhibition at 1 µM is -7.8%.

For `Fc1cnc(N2CC3(CCNCC3)C2)nc1Nc1ccc2[nH]ncc2c1` [Example 164, N-(5-fluoro-2-(2,7-diazaspiro[3.5]nonan-2-yl)pyrimidin-4-yl)-1H-indazol-5-amine], the inhibition at 1 µM is -8.3%.

Take `Fc1cnc(N2CC3(CNC3)C2)nc1Nc1ccc2[nH]ncc2c1` [Example 165, N-(5-fluoro-2-(2,6-diazaspiro[3.3]heptan-2-yl)pyrimidin-4-yl)-1H-indazol-5-amine]: the inhibition at 1 µM is -10.2%.

As for `Fc1cnc(N2CCC3NCCC3C2)nc1Nc1ccc2[nH]ncc2c1` (centres unmarked) [Example 168, N-(5-fluoro-2-(octahydro-5H-pyrrolo[3,2-c]pyridin-5-yl)pyrimidin-4-yl)-1H-indazol-5-amine], the inhibition at 1 µM amounted to 12.2%.

`Fc1cnc(N2CCCC(C3CCCNC3)C2)nc1Nc1ccc2[nH]ncc2c1` (centres unmarked) [Example 171, N-(2-([3,3′-bipiperidin]-1-yl)-5-fluoropyrimidin-4-yl)-1H-indazol-5-amine]: the inhibition at 1 µM is -9.6%.

As to `Fc1cnc(N2CCC(C3CNC3)C2)nc1Nc1ccc2[nH]ncc2c1` (centres unmarked) [Example 172, N-(2-(3-(azetidin-3-yl)pyrrolidin-1-yl)-5-fluoropyrimidin-4-yl)-1H-indazol-5-amine], the inhibition at 1 µM was -9.9%.

Take `CC(C)C1CN(c2ncc(Cl)c(Nc3ccc4[nH]ncc4c3)n2)CCCN1` (centres unmarked) [Example 181, N-(5-chloro-2-(3-isopropyl-1,4-diazepan-1-yl)pyrimidin-4-yl)-1H-indazol-5-amine]: the inhibition at 10 µM was 36.5%.

As to `CC(C)C1CCN(c2ncc(Cl)c(Nc3ccc4[nH]ncc4c3)n2)CCN1` (centres unmarked) [Example 182, N-(5-chloro-2-(5-isopropyl-1,4-diazepan-1-yl)pyrimidin-4-yl)-1H-indazol-5-amine], the inhibition at 10 µM was found to be 30.2%.

For the compound `Clc1cnc(N2CCCNC(c3ccccc3)C2)nc1Nc1ccc2[nH]ncc2c1` (centres unmarked) [Example 183, N-(5-chloro-2-(3-phenyl-1,4-diazepan-1-yl)pyrimidin-4-yl)-1H-indazol-5-amine], the inhibition at 10 µM was 43.1%.

As to `Clc1cnc(N2CCNC(c3ccccc3)CC2)nc1Nc1ccc2[nH]ncc2c1` (centres unmarked) [Example 184, N-(5-chloro-2-(5-phenyl-1,4-diazepan-1-yl)pyrimidin-4-yl)-1H-indazol-5-amine], the inhibition at 10 µM was determined as 34.1%.

As for `c1ccc(C2CN(c3nccc(Nc4ccc5[nH]ncc5c4)n3)CCN2)cc1` (centres unmarked) [Example 224, N-(2-(3-phenylpiperazin-1-yl)pyrimidin-4-yl)-1H-indazol-5-amine], the inhibition at 10 µM stood at 48% and the IC50 came out at 3350 nM.

`CC1CN(c2nccc(Nc3ccc4[nH]ncc4c3)n2)CC(C)N1` (centres unmarked) [Example 226, N-(2-(3,5-dimethylpiperazin-1-yl)pyrimidin-4-yl)-1H-indazol-5-amine]: the inhibition at 10 µM came to 67.7%.

For `CC1(C)CN(c2nccc(Nc3ccc4[nH]ncc4c3)n2)CCN1` [Example 227, N-(2-(3,3-dimethylpiperazin-1-yl)pyrimidin-4-yl)-1H-indazol-5-amine], the inhibition at 10 µM was found to be 83.4%.

In the case of `OCC1CNCCN1c1nccc(Nc2ccc3[nH]ncc3c2)n1` (centres unmarked) [Example 230, (1-(4-((1H-indazol-5-yl)amino)pyrimidin-2-yl)piperazin-2-yl)methanol], the inhibition at 10 µM was determined as 16.1%.

`c1ccc(CC2CCNCCN2c2nc3c(c(Nc4ccc5[nH]ncc5c4)n2)COC3)cc1` (centres unmarked) [Example 236, 2-(7-benzyl-1,4-diazepan-1-yl)-N-(1H-indazol-5-yl)-5,7-dihydrofuro[3,4-d]pyrimidin-4-amine]: the inhibition at 10 µM is 80.8% and the IC50 worked out at 4690 nM.

On to `CC1CN(c2nccc(Nc3ccc(-c4cn[nH]c4)cc3)n2)CCN1` (centres unmarked) [Example 252, N-(4-(1H-pyrazol-4-yl)phenyl)-2-(3-methylpiperazin-1-yl)pyrimidin-4-amine], for which the inhibition at 10 µM was 65% and the IC50 stood at 1170 nM.

With `CC1CNCCN1c1nccc(Nc2ccc(-c3cn[nH]c3)cc2)n1` (centres unmarked) [Example 253, N-(4-(1H-pyrazol-4-yl)phenyl)-2-(2-methylpiperazin-1-yl)pyrimidin-4-amine], the inhibition at 10 µM was 41.5%.
